{
  "source": "patent US7335636B2",
  "about": "“SPRR1A and axonal regeneration” (Yale University, priority 2001, dated 2008)",
  "molecules": {"B1": {"name": "SPRR1A: Recombinant mouse small proline-rich repeat protein SPRR1A purified from transformed Escherichia coli (protein, listed as Mus musculus)", "chain": "MSSHQQKQPCTVPPQLHQQQVKQPCQPPPQEPCAPKTKDPCHPVPEPCNPKGPEPCHPKAPEPCHPKAPEPCNPKVPEPCQPKVPEPCQPKVPEPCNPKVPEPCQPKAPEPCHPKAPEPCHPVVPEPCPSTVTPSPYQQKTKQK"}},
  "key": {"[1]": {"test_system": "adult mouse DRG neurons", "test": "Antisense experiment: neurite outgrowth and branching of adult mouse DRG cultures", "format": "cell-based", "method": "DRG cultures and neurite outgrowth analysis. Embryonic day 7 (E7) chick, embryonic day 13 chick, or adult mouse DRGs were dissected and dissociated with 0.25% trypsin for 15 min at 37° C. For adult mouse DRG preparations, preincubation with 1 mg/ml collagenase was included. For preconditioned adult mouse DRG cultures, sciatic nerve lesions were performed 4 d before death and L3-L5 DRG dissection. Dissociated cells were preplated on tissue culture-treated plastic dishes for 1 hr at 37° C. Non-adherent cells (predominantly neurons) were collected and plated on plastic chamber slides coated with poly-L-lysine (100 μg)/laminin (10 μg/ml). In some cases, the substrate was coated with 45 ng/mm^2 bovine CNS myelin or 34 ng/mm^2 purified GST-Nogo-66 protein as described previously (Jin and Strittmatter, 1997; GrandPre et al., 2000; Fournier et al., 2001). After 6-36 hr, cells were fixed and stained, and neurite outgrowth was quantified. Images of each culture were captured with Olympix Software and analyzed with Scion Image (Jin and Strittmatter, 1997; GrandPre et al., 2000; Fournier et al., 2001). The total neurite length for each neuron was determined for 50-100 neurons in each experiment. The total number of branch points was divided by the total neurite length to obtain a branching index.\nAntisense experiment. Phosphorothioate sense and antisense oligonucleotides spanning the translation initiation site (italic type) of the mouse sprr1a sequence (sense, p-thio-[…] (SEQ ID NO:4); antisense, p-thio-[…] (SEQ ID NO:5)) were generated. Adult mouse DRG cultures were incubated with purified oligonucleotides at concentrations of 10-50 μM. Immunoblot and immunohistological analysis was performed after 36 hr of culture."}, "[2]": {"test_system": "SPRR1A", "test": "Immunoblot for SPRR1A protein in oligonucleotide-treated adult mouse DRG cultures", "format": "cell-based", "details": "preconditioned adult DRG neurons, 36 hr culture with oligonucleotide 10-50 μM"}, "[3]": {"test_system": "E8 chick DRGs", "test": "Neurite outgrowth of E8 chick DRGs triturated with SPRR1A-derived peptide", "format": "cell-based", "details": "trituration, 6 hours after plating on laminin", "from_the_text": "Herpes simplex virus preparation and protein trituration. The coding region of mouse SPRR1A was amplified by PCR with an in-frame C-terminal Myc epitope and ligated to the pHSVprPUC vector. Similarly, the S100C coding region with a Myc tag was ligated to pHSVprPUC vector. The resulting plasmids were transfected into 2-2 cells with Fugene and then superinfected with 5 dl 1.2 herpes simplex virus (HSV) helper virus 1 d later as described previously (Nakamura et al., 1998; Takahashi et al., 1998, 1999). Recombinant virus was amplified through three passages and stored at −80° C. Freshly dissociated DRG neurons were allowed to adhere to cultured dishes for 30 min and then incubated with HSV preparations encoding for SPRR1A, S100C, enhanced green fluorescent protein (EGFP), or Nogo receptor. […]\n(§1) DRG cultures and neurite outgrowth analysis. […] After 6-36 hr, cells were fixed and stained, and neurite outgrowth was quantified. Images of each culture were captured with Olympix Software and analyzed with Scion Image (Jin and Strittmatter, 1997; GrandPre et al., 2000; Fournier et al., 2001). The total neurite length for each neuron was determined for 50-100 neurons in each experiment. […]\nAn SPRR1A-derived peptide acts as an agent to promote axon regeneration. […] This 24 amino acid peptide was triturated into E8 chick DRGs and neurite length was measured 6 hours after the cells were plated on laminin (FIG. 8). […]"}, "[4]": {"test_system": "chick E7 DRG neurons", "test": "Neurite outgrowth of embryonic chick DRG neurons after HSV infection or protein trituration", "format": "cell-based", "from_the_text": "Herpes simplex virus preparation and protein trituration. The coding region of mouse SPRR1A was amplified by PCR with an in-frame C-terminal Myc epitope and ligated to the pHSVprPUC vector. Similarly, the S100C coding region with a Myc tag was ligated to pHSVprPUC vector. The resulting plasmids were transfected into 2-2 cells with Fugene and then superinfected with 5 dl 1.2 herpes simplex virus (HSV) helper virus 1 d later as described previously (Nakamura et al., 1998; Takahashi et al., 1998, 1999). Recombinant virus was amplified through three passages and stored at −80° C. Freshly dissociated DRG neurons were allowed to adhere to cultured dishes for 30 min and then incubated with HSV preparations encoding for SPRR1A, S100C, enhanced green fluorescent protein (EGFP), or Nogo receptor. Recombinant SPRR1A and S100C protein were triturated into dissociated DRGs by repetitive pipetting in the presence of 1 mg/ml of protein as described previously (Jin and Strittmatter, 1997).\nas §1"}, "[5]": {"test_system": "F-actin", "test": "Actin cosedimentation and immunoprecipitation assays", "format": "binding", "details": "in the presence or absence of S100C protein", "method": "Actin cosedimentation assay. The actin cosedimentation protocol has been described previously (Gonzalez et al., 1998; Sakaguchi et al., 2000). Purified monomeric actin (G-actin, 25 μM; Cytoskeleton, Denver, Colo.) was incubated with recombinant SPRR1A (200 nM), GST-S100C (2 μM), or GST (2 μM) in an actin polymerization buffer (5 mM Tris, pH 8.0, 1.0 mM CaCl2, 1.0 mM DTT, 0.2 mM ATP, 100 mM KCl, 2.0 mM MgCl2) at room temperature for 60 min. Polymerized actin was sedimented by centrifugation at […] for 1 hr. Equal volumes of the particulate and supernatant fractions were analyzed by SDS-PAGE and immunoblotting."}},
  "note": "“Also recorded” adds a separate entry of the source.",
  "data": [
    {"molecule": "p-thio-GTGGGAACTCATGGTTAGAT (all phosphorothioate, sugars by position and methylation of C not given here) [antisense oligonucleotide]", "values": [
      {"measurement": "neurite length, preconditioned neurons", "setting": "[1]; adult preconditioned DRG neurons, 36 hr, vs sense-treated", "value": "significant decrease in neurite length"},
      {"measurement": "axonal branching index, preconditioned neurons", "setting": "[1]; adult preconditioned DRG neurons, vs sense-treated", "value": "marked increase"},
      {"measurement": "effect on naive neurons (do not express SPRR1A)", "setting": "[1]; naive adult mouse DRG neurons", "value": "lack of effect"},
      {"measurement": "SPRR1A protein level (immunoblot, immunohistochemistry)", "setting": "[2]", "value": "significantly and selectively decreased; also recorded: decreases to nearly basal levels"}
    ]},
    {"molecule": "acetyl-HPKAPEPCNPKVPEPCQPKVPEPC-amide (Ac-HPKAPEPCNPKVPEPCQPKVPEPC-NH2; cysteine pairing not given here; listed as Mus musculus) [SEQ ID NO:3, 24 amino acid peptide consisting of three XPKXPEPC octapeptide repeats of SPRR1A]", "values": [
      {"measurement": "enhancement of average neurite outgrowth", "setting": "[3]; 5-25 μM peptide", "value": 1.7, "unit": "fold"},
      {"measurement": "enhancement of neurite outgrowth", "setting": "[3]; 100-500 μM peptide", "value": 2.5, "unit": "fold"}
    ]},
    {"molecule": "B1", "values": [
      {"measurement": "neurite outgrowth, protein added to the culture medium without trituration", "setting": "[4]; no trituration", "value": "does not alter outgrowth"},
      {"measurement": "neurite outgrowth in neurons triturated with purified protein", "setting": "[4]; recombinant protein triturated into DRG neurons, 1 mg/ml", "value": "increase in neurite outgrowth"},
      {"measurement": "direct physical association with F-actin", "setting": "[5]", "value": "no direct physical association"}
    ]}
  ]
}
